Results published in ChEMBL document CHEMBL4837239, “Identification of Thieno[3,2-d]pyrimidine Derivatives as Dual Inhibitors of Focal Adhesion Kinase and FMS-like Tyrosine Kinase 3” (J Med Chem, 2021).
Calls of active or inactive are those of the source. No cut-off for these calls is given here.

Experiments:
[1] = molecular target: T1, Tyrosine-protein kinase Fyn (Homo sapiens, UniProt P06241); assay: Inhibition of Fyn (unknown origin) at 0.1 uM
Target sequence in this assay (P06241 2-537 limits assumed): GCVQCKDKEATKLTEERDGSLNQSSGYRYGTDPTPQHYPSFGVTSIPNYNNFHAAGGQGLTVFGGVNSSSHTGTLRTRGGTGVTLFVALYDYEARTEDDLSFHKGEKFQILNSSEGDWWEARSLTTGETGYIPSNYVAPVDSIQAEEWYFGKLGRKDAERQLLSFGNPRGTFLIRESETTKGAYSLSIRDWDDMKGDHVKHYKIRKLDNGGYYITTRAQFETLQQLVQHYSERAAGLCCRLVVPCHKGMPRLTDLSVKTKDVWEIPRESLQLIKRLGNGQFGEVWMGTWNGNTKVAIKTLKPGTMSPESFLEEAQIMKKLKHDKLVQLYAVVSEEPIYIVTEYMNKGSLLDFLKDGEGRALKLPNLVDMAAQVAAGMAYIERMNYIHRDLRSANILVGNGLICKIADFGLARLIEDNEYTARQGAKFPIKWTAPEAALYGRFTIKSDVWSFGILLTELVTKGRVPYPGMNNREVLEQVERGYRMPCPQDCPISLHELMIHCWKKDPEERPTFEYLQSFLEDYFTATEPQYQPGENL

MDA-MB-231 [2] = assay: Antimigratory activity in human MDA-MB-231 cells assessed as suppression of migration at 1 uM measured after 12 hrs by scratch wound healing assay; format: functional
[3] = molecular target: Tyrosine-protein kinase Lck (Homo sapiens, UniProt P06239); assay: Inhibition of Lck (unknown origin)
[4] = molecular target: Non-receptor tyrosine-protein kinase TYK2 (Homo sapiens, UniProt P29597); assay: Inhibition of TYK2 (unknown origin) at 0.1 uM
MDA-MB-231 [5] = assay: Induction of apoptosis in human MDA-MB-231 cells assessed as cleaved caspase-3 at 0.1 to 10 uM incubated for 24 hrs by Western blot analysis; format: functional, cell-based; details: dose 0.1-10 µM
[6] = molecular target: T1, Tyrosine-protein kinase Fyn; assay: Inhibition of Fyn (unknown origin)
Target sequence in this assay (P06241 whole entry): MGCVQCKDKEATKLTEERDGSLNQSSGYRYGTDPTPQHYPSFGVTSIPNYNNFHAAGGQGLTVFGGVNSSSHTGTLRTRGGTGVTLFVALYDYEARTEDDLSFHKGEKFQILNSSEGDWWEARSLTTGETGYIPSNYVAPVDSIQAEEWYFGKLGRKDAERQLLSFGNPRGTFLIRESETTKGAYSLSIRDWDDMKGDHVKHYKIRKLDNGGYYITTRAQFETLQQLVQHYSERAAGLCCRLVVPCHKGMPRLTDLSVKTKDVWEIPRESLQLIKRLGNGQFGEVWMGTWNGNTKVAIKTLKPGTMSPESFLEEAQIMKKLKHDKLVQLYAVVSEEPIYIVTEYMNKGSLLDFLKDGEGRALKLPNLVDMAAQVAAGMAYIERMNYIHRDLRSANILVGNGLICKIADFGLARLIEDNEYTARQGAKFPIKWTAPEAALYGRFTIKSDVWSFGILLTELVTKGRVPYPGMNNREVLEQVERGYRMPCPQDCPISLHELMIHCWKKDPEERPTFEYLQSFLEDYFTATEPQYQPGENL

MDA-MB-231 [7] = assay: Induction of apoptosis in human MDA-MB-231 cells assessed as cleaved PARP at 0.1 to 10 uM incubated for 24 hrs by Western blot analysis; format: functional, cell-based; details: dose 0.1-10 µM
[8] = molecular target: Proto-oncogene tyrosine-protein kinase ROS (Homo sapiens, UniProt P08922); assay: Inhibition of ROS (unknown origin)
MV4-11 [9] = assay: In vivo antitumor activity against human MV4-11 cells xenografted in mouse assessed as tumor growth inhibition at 20 mg/kg, po; format: functional; details: MV4-11, po
BaF3 [10] = assay: Antiproliferative activity against mouse Ba/F3 cells harbouring FLT3 ITD F691I mutant assessed as growth inhibition measured after 72 hrs by CellTiter-Glo assay; format: functional; details: Mus musculus, BaF3
MDA-MB-231 [11] = assay: In vivo antitumor activity against human MDA-MB-231 cells xenografted in Balb/c mouse assessed as tumor volume at 40 mg/kg, po once daily measured for 16 days (reference value: 600 mm^3); format: functional; details: time 16 day
BaF3 [12] = assay: Inhibition of FLT3-ITD/[…] mutant (unknown origin) expressed in mouse BaF3 cells assessed as decrease in autophosphorylation at 1 nM by Western blot analysis; format: cell-based; details: Homo sapiens
[13] = molecular target: Epithelial discoidin domain-containing receptor 1 (Homo sapiens, UniProt Q08345); assay: Inhibition of DDR1 (unknown origin)
CYP2C19 = CYP2C19 (Homo sapiens, UniProt P33261); assay: Inhibition of CYP2C19 (unknown origin) at 10 uM relative to control; format: ADME
BaF3 [14] = assay: Antiproliferative activity against mouse Ba/F3 cells harbouring FLT3 ITD D835Y mutant assessed as growth inhibition measured after 72 hrs by CellTiter-Glo assay; format: functional; details: Mus musculus, BaF3
[15] = molecular target: Tyrosine-protein kinase Fes/Fps (Homo sapiens, UniProt P07332); assay: Inhibition of Fes (unknown origin) at 0.1 uM
[16] = Antimigratory activity in human HCT-116 cells assessed as suppression of migration at 1 uM measured after 12 hrs by scratch wound healing assay; format: functional
MDA-MB-231 [17] = assay: In vivo antitumor activity against human MDA-MB-231 cells xenografted in Balb/c mouse assessed as reduction in tumor weight at 40 to 70 mg/kg, po once daily measured for 16 days; format: functional, organism-based; details: dose 40-70 mg/kg, time 16.0 day
MDA-MB-231 [18] = assay: Antimetastatic activity against human MDA-MB-231 cells expressing firefly luciferase xenografted NSG orthotopic mouse model assessed as reduction in luminescence intensity at 40 to 70 mg/kg, po once daily measured for 2 weeks; format: functional, organism-based; details: dose 40-70 mg/kg
[19] = molecular target: Casein kinase II subunit alpha (Homo sapiens, UniProt P68400); assay: Inhibition of CK2alpha1 (unknown origin) at 0.1 uM
[20] = molecular target: Tyrosine-protein kinase JAK3 (Homo sapiens) (UniProt P52333); assay: Inhibition of JAK3 (unknown origin) at 0.1 uM
Focal adhesion kinase 1 = Focal adhesion kinase 1 (Homo sapiens, UniProt Q05397); assay: Inhibition of FAK (unknown origin) at 0.1 uM
MDA-MB-231 [21] = assay: In vivo antitumor activity against human MDA-MB-231 cells xenografted in Balb/c mouse assessed as tumor volume at 70 mg/kg, po once daily measured for 16 days (reference value: 600 mm^3); format: functional; details: time 16 day
BaF3 [22] = assay: Antiproliferative activity against mouse Ba/F3 cells harbouring FLT3 ITD F691L mutant assessed as growth inhibition measured after 72 hrs by CellTiter-Glo assay; format: functional; details: Mus musculus, BaF3
BaF3 [23] = assay: Antiproliferative activity against mouse Ba/F3 cells assessed as growth inhibition measured after 72 hrs by CellTiter-Glo assay; format: functional; details: Mus musculus, BaF3
MV4-11 [24] = assay: In vivo antitumor activity against human MV4-11 cells xenografted in mouse assessed as tumor growth inhibition at 50 mg/kg, po; format: functional; details: MV4-11, po
MDA-MB-231 [25] = assay: Antimetastatic activity against human MDA-MB-231 cells expressing firefly luciferase xenografted NSG orthotopic mouse model assessed as reduction in tumor weight at 70 mg/kg, po once daily measured for 2 weeks; format: functional, organism-based
[26] = Oral bioavailability in rat at 5 mg/kg; format: ADME, organism-based; details: in vivo
MDA-MB-231 [27] = assay: Disruption of focal adhesion of human MDA-MB-231 cells assessed as decrease in F-actin measured after 3 hrs by Alexa Fluor 488-conjugated Ab based fluorescence analysis; format: functional; design: scale not given: the % may be the effect or the level left; details: dose 1-10 µM, at 1 to 10 µM
Ephrin type-B receptor 1 = Ephrin type-B receptor 1 (Homo sapiens, UniProt P54762); assay: Inhibition of EphB1 (unknown origin)
MDA-MB-231 [28] = assay: Induction of apoptosis in human MDA-MB-231 cells assessed apoptotic cell death at 10 uM incubated for 24 hrs by Annexin-V/PI analysis; format: functional, cell-based

Sequence of Focal adhesion kinase 1 (Q05397 2-1052 limits assumed): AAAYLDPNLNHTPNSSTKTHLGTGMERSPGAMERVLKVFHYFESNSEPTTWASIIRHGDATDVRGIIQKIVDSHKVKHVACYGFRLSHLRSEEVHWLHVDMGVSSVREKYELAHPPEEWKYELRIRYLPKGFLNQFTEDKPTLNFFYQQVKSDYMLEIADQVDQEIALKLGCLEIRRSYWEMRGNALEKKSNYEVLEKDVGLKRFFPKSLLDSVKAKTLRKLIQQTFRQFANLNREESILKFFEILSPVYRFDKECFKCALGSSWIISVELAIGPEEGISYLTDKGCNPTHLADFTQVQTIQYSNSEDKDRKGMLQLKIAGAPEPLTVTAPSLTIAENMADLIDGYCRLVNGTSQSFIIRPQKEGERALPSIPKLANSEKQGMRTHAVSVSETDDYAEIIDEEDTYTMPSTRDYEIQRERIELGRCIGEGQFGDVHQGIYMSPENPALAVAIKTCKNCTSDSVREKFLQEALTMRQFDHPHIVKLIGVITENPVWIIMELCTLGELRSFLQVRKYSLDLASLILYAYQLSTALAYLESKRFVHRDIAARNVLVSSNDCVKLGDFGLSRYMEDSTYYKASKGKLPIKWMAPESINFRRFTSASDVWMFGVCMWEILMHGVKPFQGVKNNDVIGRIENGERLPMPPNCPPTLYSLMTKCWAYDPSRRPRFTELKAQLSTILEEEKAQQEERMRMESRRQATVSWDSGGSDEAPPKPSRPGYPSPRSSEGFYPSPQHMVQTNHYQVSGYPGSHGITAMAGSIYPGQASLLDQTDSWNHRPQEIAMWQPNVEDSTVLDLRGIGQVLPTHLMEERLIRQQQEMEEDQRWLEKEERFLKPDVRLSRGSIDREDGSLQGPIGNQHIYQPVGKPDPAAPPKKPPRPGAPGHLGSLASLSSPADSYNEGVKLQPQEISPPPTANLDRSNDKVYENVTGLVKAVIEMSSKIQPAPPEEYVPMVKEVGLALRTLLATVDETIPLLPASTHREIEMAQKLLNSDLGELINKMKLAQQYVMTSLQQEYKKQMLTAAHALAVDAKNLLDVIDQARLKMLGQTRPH
Sequence of Tyrosine-protein kinase Fes/Fps (P07332 whole entry): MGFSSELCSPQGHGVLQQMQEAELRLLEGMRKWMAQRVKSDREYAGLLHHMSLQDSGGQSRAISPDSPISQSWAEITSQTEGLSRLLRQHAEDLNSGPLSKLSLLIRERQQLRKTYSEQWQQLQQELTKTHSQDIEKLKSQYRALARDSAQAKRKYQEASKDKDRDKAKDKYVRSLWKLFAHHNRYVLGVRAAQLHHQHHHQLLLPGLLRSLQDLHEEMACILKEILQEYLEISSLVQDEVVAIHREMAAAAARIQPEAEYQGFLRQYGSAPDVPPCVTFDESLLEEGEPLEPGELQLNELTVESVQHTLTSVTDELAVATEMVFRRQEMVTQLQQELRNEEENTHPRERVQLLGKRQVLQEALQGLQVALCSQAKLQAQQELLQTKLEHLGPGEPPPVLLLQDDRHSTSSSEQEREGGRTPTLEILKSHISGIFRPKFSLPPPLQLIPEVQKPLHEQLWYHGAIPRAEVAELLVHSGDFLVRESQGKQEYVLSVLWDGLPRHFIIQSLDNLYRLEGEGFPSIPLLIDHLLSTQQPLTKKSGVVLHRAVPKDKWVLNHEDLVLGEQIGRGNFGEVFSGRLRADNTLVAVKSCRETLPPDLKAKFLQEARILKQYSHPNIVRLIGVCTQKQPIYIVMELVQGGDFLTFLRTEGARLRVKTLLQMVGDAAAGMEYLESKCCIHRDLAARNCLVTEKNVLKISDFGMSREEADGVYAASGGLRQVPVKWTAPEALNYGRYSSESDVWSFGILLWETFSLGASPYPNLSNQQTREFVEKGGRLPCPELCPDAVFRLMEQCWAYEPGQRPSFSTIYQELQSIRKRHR
Sequence of Ephrin type-B receptor 1 (P54762 whole entry): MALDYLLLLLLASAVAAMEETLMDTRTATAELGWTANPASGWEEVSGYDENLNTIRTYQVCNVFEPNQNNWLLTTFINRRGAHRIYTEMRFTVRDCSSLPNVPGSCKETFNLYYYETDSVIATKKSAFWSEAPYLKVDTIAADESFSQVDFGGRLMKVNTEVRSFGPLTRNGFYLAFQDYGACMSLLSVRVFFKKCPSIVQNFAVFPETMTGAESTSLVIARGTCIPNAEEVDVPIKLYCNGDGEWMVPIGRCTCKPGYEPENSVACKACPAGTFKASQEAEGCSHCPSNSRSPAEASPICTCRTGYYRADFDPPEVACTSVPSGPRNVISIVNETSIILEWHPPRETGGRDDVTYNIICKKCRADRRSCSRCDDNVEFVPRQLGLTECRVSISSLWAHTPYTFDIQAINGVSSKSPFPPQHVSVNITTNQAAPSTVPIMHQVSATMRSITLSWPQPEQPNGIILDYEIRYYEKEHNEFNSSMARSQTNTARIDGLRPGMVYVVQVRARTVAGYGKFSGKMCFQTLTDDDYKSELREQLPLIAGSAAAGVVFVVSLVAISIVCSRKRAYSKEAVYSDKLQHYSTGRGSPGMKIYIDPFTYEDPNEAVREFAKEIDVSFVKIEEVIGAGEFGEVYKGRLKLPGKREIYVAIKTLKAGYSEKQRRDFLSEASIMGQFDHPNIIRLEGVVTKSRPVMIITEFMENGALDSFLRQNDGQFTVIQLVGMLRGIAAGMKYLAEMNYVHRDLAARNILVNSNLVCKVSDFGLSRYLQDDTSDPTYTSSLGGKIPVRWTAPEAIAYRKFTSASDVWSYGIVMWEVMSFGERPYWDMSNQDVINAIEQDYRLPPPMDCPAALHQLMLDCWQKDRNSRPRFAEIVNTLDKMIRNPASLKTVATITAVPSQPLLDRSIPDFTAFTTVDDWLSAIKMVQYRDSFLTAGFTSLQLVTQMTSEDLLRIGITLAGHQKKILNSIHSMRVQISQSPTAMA
Sequence of Epithelial discoidin domain-containing receptor 1 (Q08345 whole entry, the tested form may be a part): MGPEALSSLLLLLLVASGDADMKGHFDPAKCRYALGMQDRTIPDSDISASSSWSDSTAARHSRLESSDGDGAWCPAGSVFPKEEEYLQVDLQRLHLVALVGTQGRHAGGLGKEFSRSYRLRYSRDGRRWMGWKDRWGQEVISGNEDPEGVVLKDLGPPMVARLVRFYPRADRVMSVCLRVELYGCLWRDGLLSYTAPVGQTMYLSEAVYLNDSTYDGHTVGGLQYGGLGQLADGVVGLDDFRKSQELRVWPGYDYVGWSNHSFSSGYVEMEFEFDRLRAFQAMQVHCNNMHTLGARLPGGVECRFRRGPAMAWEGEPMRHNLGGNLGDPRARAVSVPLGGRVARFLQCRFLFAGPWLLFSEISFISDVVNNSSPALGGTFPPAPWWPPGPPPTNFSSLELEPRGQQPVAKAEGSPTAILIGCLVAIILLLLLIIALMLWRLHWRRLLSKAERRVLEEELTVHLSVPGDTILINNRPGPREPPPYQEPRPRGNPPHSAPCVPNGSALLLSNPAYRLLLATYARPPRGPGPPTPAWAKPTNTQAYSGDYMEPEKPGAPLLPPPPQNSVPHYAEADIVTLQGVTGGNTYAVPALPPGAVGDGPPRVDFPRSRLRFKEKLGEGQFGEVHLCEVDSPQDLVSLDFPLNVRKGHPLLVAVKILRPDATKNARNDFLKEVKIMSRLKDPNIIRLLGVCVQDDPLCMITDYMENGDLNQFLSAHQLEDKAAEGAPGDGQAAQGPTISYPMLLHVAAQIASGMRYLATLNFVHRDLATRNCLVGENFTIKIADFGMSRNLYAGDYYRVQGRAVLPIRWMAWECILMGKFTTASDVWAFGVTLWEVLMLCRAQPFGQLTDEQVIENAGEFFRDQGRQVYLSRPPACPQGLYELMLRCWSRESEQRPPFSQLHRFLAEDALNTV

Question: Which inhibition [1] does the source give for `CCN1CCN(c2ccc(Nc3ncc4scc(-c5cccc(NS(C)(=O)=O)c5)c4n3)cc2)CC1` here?
Answer: The inhibition was 92%.

Question: And the inhibition at 1 µM (MDA-MB-231 [2])?
Answer: Its inhibition at 1 µM is 50%.

Question: And the IC50 [3]?
Answer: The IC50 was 7.8 nM.

Question: What about the inhibition [4] of the same compound?
Answer: Its inhibition is 95.9%.

Question: And the Activity (MDA-MB-231 [5])?
Answer: Its Activity is “Active”.

Question: What about the IC50 [6] of the same compound?
Answer: Its IC50 is 7.7 nM.

Question: What about the Activity (MDA-MB-231 [7]) of the same compound?
Answer: The Activity was “Active”.

Question: What about the IC50 [8] of the same compound?
Answer: Its IC50 is 22 nM.

Question: And the inhibition in vivo at 20 mg/kg (MV4-11 [9])?
Answer: Its inhibition in vivo at 20 mg/kg is 65%.

Question: And the GI50 (BaF3 [10])?
Answer: The GI50 was 114 nM.

Question: And the Activity (MDA-MB-231 [11])?
Answer: The Activity was 400 mm3.

Question: And the inhibition (BaF3 [12])?
Answer: Its inhibition is “Active”.

Question: What about the IC50 [13] of the same compound?
Answer: The IC50 was 4.4 nM.

Question: What about the inhibition at 10 µM (CYP2C19) of the same compound?
Answer: The inhibition at 10 µM was 90.6%.

Question: And the GI50 (BaF3 [14])?
Answer: Its GI50 is 5.7 nM.

Question: And the inhibition [15]?
Answer: The inhibition was 95%.

Question: What about the inhibition at 1 µM [16] of the same compound?
Answer: The inhibition at 1 µM was 50%.

Question: What about the Activity (MDA-MB-231 [17]) of the same compound?
Answer: The Activity was “Active”.

Question: And the Activity (MDA-MB-231 [18])?
Answer: The Activity was “Active”.

Question: What about the inhibition [19] of the same compound?
Answer: The inhibition was 95.5%.

Question: And the inhibition [20]?
Answer: Its inhibition is 96.7%.

Question: What about the inhibition (Focal adhesion kinase 1) of the same compound?
Answer: Its inhibition is 95.6%.

Question: And the Activity (MDA-MB-231 [21])?
Answer: The Activity was 300 mm3.

Question: And the GI50 (BaF3 [22])?
Answer: The GI50 was 60.5 nM.

Question: And the GI50 (BaF3 [23])?
Answer: Its GI50 is 428 nM.

Question: What about the inhibition in vivo at 50 mg/kg (MV4-11 [24]) of the same compound?
Answer: The inhibition in vivo at 50 mg/kg was 96%.

Question: And the Activity (MDA-MB-231 [25])?
Answer: The Activity was “Active”.

Question: What about the bioavailability [26] of the same compound?
Answer: Its bioavailability is 37.1%.

Question: And the Activity (MDA-MB-231 [27])?
Answer: The Activity was 50%.

Question: What about the IC50 (Ephrin type-B receptor 1) of the same compound?
Answer: Its IC50 is 29.8 nM.

Question: And the Activity (MDA-MB-231 [28])?
Answer: Its Activity is “Active”.
